Assay results as given in patent US20250057963A1, “DISCOVERY OF PIPERLONGUMINE AS A NOVEL E3 LIGASE LIGAND” (University of Florida Research Foundation, Incorporated, priority 2021, published 2025).
“Also recorded” adds a separate entry of the source.

Key:
CDK9 [1] = biological target: T1, CDK9 (Homo sapiens, UniProt P50750); assay: CDK9 degradation in MOLT4 cells (immunoblot); format: cell-based; design: endogenous in cells; host or cells: MOLT4, 293T, K562, NCI-H1299, LNCaP; conditions: 6 h treatment
Experimental: All the cell lines were maintained in a humidified incubator at 37° C. and 5% CO2.
Data analysis was performed using GraphPad Prism software (version 9) unless indicated otherwise. All graphs presented represent the mean±standard deviation of the mean (SD) unless otherwise stated.
Target sequence in this assay (P50750 whole entry): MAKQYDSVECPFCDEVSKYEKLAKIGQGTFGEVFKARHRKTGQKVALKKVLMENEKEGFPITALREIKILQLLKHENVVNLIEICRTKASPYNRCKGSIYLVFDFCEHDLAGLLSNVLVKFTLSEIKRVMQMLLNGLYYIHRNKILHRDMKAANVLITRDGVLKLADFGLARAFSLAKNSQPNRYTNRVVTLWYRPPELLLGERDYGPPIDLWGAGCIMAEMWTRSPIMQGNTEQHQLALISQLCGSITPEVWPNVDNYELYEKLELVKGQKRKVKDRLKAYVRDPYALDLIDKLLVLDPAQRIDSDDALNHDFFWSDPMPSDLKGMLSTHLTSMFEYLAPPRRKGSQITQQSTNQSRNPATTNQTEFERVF

CDK9 [2] = biological target: T1, CDK9; conditions: Table 1; b281 prints these figures as IC50; cited from earlier work
Target sequence in this assay (P50750 whole entry, species assumed): as the sequence (P50750 whole entry) above
Target sequence in this assay (O60563 whole entry partner, species assumed): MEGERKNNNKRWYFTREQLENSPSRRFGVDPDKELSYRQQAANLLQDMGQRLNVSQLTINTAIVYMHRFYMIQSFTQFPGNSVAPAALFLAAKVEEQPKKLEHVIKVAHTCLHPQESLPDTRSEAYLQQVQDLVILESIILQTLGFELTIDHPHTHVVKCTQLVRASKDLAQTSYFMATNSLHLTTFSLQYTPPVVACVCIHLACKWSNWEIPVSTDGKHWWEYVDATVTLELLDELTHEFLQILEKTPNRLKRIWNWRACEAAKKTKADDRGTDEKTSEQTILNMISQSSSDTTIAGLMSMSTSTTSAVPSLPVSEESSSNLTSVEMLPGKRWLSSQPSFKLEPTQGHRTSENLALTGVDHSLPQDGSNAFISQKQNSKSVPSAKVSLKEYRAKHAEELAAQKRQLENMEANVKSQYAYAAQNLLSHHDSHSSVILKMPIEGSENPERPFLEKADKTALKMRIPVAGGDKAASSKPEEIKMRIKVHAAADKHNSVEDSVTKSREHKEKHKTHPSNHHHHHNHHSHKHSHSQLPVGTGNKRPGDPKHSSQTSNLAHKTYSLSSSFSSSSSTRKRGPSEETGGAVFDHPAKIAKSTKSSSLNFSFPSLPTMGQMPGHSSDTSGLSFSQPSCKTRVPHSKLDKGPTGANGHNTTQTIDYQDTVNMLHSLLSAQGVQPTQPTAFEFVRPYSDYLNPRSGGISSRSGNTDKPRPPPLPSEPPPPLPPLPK

CDK9 [3] = biological target: T1, CDK9; assay: TMT-based global proteomics in MOLT4 cells; format: cell-based; design: endogenous in cells; host or cells: MOLT4; conditions: 0.1 μM 955 for 1 h and 6 h, 1 μM SNS-032 for 6 h
Source text: Sample Preparation and LC-MS/MS analysis. Total protein from cell pellets was reduced, alkylated, and purified by chloroform/methanol extraction prior to digestion with sequencing grade modified porcine trypsin (Cat. No. V5111, Promega). Tryptic peptides were labeled using tandem mass tag isobaric labeling reagents (Cat. No. A34808, ThermoFisher) following the manufacturer's instructions and combined into one 11-plex sample group. The labeled peptide multiplex was separated into 46 fractions on a 100×1.0 mm Acquity BEH C18 column (Waters) using an UltiMate 3000 UHPLC system (Thermo) with a 50 min gradient from 99:1 to 60:40 bufferA:B (Buffer A: 0.1% formic acid, 0.5% acetonitrile; Buffer B: 0.1% formic acid, 99.9% acetonitrile. Both buffers adjusted to pH 10 with ammonium hydroxide for offline separation) ratio under basic pH conditions, and then consolidated into 18 super-fractions. […]
Data processing and analysis. Proteins were identified and MS3 reporter ions quantified using MaxQuant (version 2.0.3.0; Max Planck Institute) against the Homo sapiens UniprotKB database (March 2021) with a parent ion tolerance of 3 ppm, a fragment ion tolerance of 0.5 Da, and a reporter ion tolerance of 0.003 Da. Scaffold Q+S (Proteome Software) was used to verify MS/MS based peptide and protein identifications (protein identifications were accepted if they could be established with less than 1.0% false discovery and contained at least 2 identified peptides; protein probabilities were assigned by the Protein Prophet algorithm (Nesvizhskii et al., 2003) and to perform reporter ion-based statistical analysis. Protein TMT MS3 reporter ion intensity values were assessed for quality using ProteiNorm for a systematic evaluation of normalization methods (Graw et al., 2020). Cyclic loess normalization (Ritchie et al., 2015) was utilized since it had the highest intragroup correlation and the lowest variance amongst the samples. […]
Target sequence in this assay (P50750 whole entry): as the sequence (P50750 whole entry) above

[4] = system: LNCaP, 22RV1, PC3 and DU145 prostate cancer cell lines; assay: Viability (MTS) assay in prostate cancer cell lines; format: cell-based, Human; conditions: Homo sapiens, 72 h, read-out: EC50, anti-proliferation
Experimental: All the cell lines were maintained in a humidified incubator at 37° C. and 5% CO2. […] The data were expressed as average % cell viability and fitted in non-linear regression curves using GraphPad Prism 9 (GraphPad Software, La Jolla, CA, USA).

[5] = system: LNCaP prostate cancer cells and H1299 lung cancer cells; assay: Cell killing (MTS) with or without KEAP1 siRNA knockdown; format: cell-based, Human; conditions: KEAP1 siRNA vs control siRNA 48 h; compound 0.1 mM (LNCaP) or 0.3 mM (H1299) for 24 h
Experimental: FIGS. 19A to 19B show percentages of cell killing in LNCaP (FIG. 19A) and H1299 (FIG. 19B) cells with or without KEAP1 knockdown. LNCaP and H1299 cells were treated with control siRNA or siRNAs targeting KEAP1 for 48 h and then reseeded and treated with indicated compound (0.1 mM for LNCaP cells and 0.3 mM for H1299 cells) for 24 h. The cell viability was then determined by MTS assay. The data are presented as mean±SD from three replicate cell cultures in a representative experiment. Data are representative of two independent experiments. Statistical significance was calculated with unpaired two-tailed Student's t-tests. **P<0.01; ***P<0.001; NS: not significant.
Viability (MTS) assays in various cancer cells followed the methods described in our previous report (Khan et al., 2019). The data were expressed as average % cell viability and fitted in non-linear regression curves using GraphPad Prism 9 (GraphPad Software, La Jolla, CA, USA).

CDK10 = biological target: T2, CDK10 (Homo sapiens, UniProt Q15131); conditions: b290: Kinativ screening in MOLT4 lysates (Olson et al., 2018); cited from earlier work
T2 construct: endogenous in cells; host or cells: MOLT4
T2 sequence (Q15131 whole entry): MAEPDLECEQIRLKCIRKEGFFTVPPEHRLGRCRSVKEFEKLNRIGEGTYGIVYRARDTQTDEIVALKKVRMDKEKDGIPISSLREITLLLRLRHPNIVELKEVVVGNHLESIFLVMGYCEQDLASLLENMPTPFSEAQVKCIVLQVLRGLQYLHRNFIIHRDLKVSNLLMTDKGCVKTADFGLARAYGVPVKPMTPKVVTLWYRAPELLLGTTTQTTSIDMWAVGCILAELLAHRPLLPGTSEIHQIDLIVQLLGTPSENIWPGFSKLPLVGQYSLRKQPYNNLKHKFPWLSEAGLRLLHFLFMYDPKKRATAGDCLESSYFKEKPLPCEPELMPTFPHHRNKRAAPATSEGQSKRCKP

CDK9 [6] = biological target: T1, CDK9; conditions: Olson et al., 2018; cited from earlier work
Target sequence in this assay (P50750 whole entry, species assumed): as the sequence (P50750 whole entry) above

EML4-ALK = biological target: T3, EML4-ALK (Homo sapiens, UniProt Q9UM73); assay: EML4-ALK degradation in NCI-H2228 cells (immunoblot); format: cell-based
T3 construct: endogenous in cells; host or cells: NCI-H2228; the other entry of the earlier key: EML4 (Q9HC35, Echinoderm microtubule-associated protein-like 4)
T3 sequence (Q9UM73 with tags, fused parts or gaps): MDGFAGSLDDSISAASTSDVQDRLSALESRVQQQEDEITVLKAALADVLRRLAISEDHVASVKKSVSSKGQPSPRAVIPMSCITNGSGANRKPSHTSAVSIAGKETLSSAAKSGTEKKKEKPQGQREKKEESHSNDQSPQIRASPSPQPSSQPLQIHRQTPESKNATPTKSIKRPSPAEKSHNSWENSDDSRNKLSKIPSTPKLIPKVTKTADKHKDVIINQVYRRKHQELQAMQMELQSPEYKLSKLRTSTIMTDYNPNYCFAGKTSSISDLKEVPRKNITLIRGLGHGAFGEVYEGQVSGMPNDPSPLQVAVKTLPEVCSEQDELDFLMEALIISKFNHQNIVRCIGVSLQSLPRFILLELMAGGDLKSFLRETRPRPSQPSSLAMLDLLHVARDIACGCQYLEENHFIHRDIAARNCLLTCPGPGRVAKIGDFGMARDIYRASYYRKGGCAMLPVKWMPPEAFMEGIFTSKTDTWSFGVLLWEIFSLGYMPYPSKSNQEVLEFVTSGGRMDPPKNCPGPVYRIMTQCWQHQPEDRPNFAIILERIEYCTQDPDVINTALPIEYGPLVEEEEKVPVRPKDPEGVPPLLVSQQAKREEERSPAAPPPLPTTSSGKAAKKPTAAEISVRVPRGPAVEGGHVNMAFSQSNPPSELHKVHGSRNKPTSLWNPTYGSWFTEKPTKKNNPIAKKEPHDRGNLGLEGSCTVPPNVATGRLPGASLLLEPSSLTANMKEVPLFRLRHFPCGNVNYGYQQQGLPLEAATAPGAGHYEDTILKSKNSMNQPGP
Experimental: Human T-ALL MOLT4 (Cat. No. CRL-1582), K562 (Cat. No. CCL-243), NCI-H1299 (Cat. No. CRL-5803), NCI-H2228 (Cat. No. CRL-5935), LNCaP (Cat. No. CRL-1740), 22RV1 (Cat. No. CRL-2505), PC3 (Cat. No. CRL-1435), DU145 (Cat. No. HTB-81), and epithelial kidney HEK 293T (293T, Cat. No. ACS-4500) cell lines were recently purchased from American Type Culture Collection (ATCC, Manassas, VA, USA). MOLT4, K562, NCI—H-1299, NCI-H2228, LNCap, and 22RV 1 cell lines were cultured in RPMI 1640 medium (Cat No. 22400-089, Thermo Fisher Scientific, Waltham, MA, USA) supplemented with 10% (v/v) heat-inactivated fetal bovine serum (FBS, Cat. No. S11150H, Atlanta Biologicals, Flowery Branch, GA, USA), 100 U/mL penicillin and 100 pig/mL streptomycin (Pen-Strep, Cat. No. 15140122, Thermo Fisher Scientific). PC3 cells were cultured in complete F—12K medium (Kaighn's modification of Ham's F-12 medium, Cat. No. 30-2004, ATCC) supplemented with 10% (v/v) heat-inactivated FBS, 100 U/mL penicillin, and 100 μg/mL streptomycin. DU145 cells were cultured in complete Eagle's Minimum Essential Medium (EMEM, Cat. No. 30-2003, ATCC) supplemented with 10% (v/v) heat-inactivated FBS, 100 U/mL penicillin, and 100 μg/mL streptomycin. […]
Immunoblot data were quantified using the ImageJ (v 1.53a) software from NIH. […]

## CC(C)(C)c1cnc(CSc2cnc(NC(=O)C3CCNCC3)s2)o1 [SNS-032, N-(5-(((5-(tert-butyl)oxazol-2-yl)methyl)thio)thiazol-2-yl)piperidine-4-carboxamide, reference compound]
CDK9 [1]
  CDK9 degradation with short-term treatment: no degradation effect; also recorded: could not
CDK9 [2]
  Binding Affinity, CDK9: CDK9: 4 nM
CDK9 [3]
  CDK9 protein level (global proteome): no significant effect on CDK9
[4]
  EC50: > 0.1 µM
[5]
  effect of KEAP1 knockdown on cytotoxicity of the compound: no significant effect
CDK10
  binding of SNS-032 to CDK10: very low binding affinity; also recorded: moderate binding

## CC(C)(C)c1cnc(CSc2cnc(NC(=O)C3CCN(CC(=O)NCCOCCOCCOCCNc4cccc5c4C(=O)N(C4CCC(=O)NC4=O)C5=O)CC3)s2)o1 (stereo not drawn) [THAL-SNS-032]
CDK9 [6]
  degradation selectivity among SNS-032 targets: could only degrade CDK9 but not other known SNS-032 targets

## COc1cc(/C=C/C(=O)N2CCC=CC2=O)cc(OC)c1OCC(=O)N1CCC(c2cc(OC(C)C)c(Nc3ncc(Cl)c(Nc4ccccc4S(=O)(=O)C(C)C)n3)cc2C)CC1 [compound 819, (E)-1-(3-(4-(2-(4-(4-((5-chloro-4-((2-(isopropylsulfonyl)phenyl)amino)pyrimidin-2-yl)amino)-5-isopropoxy-2-methylphenyl)piperidin-1-yl)-2-oxoethoxy)-3,5-dimethoxyphenyl)acryloyl)-5,6-dihydropyridin-2(1H)-one]
EML4-ALK
  819-induced EML4-ALK degradation after pre-treatment with MG132, MLN4924 or DMF: can be blocked
EML4-ALK; immunoblot
  EML4-ALK degradation: concentration-dependent manner; also recorded: degrades EML4-ALK
